Measured values taken from US20150337013A1, “NOVEL ANTIBACTERIAL AGENTS FOR THE TREATMENT OF GRAM POSITIVE INFECTIONS” (priority 2008, published 2015).
Read-outs that look alike come from different tables or passages of the source.

Tests used:
[1] = test system: C. difficile spores (ATCC #43596); assay: Hamster C. difficile infection (CDAD) protection model; type: in vivo, Syrian golden hamsters; settings: oral 0.5 mg/kg once daily for 5 days (MET 70 mg/kg three times daily for 5 days)
Experimental: Syrian golden hamsters were pretreated with 10 mg/kg clindamycin subcutaneously 24 hours before bacterial challenge. An inoculum of 20 C. difficile spores (ATCC #43596) in sterile saline was administered orally. Treatment was initiated 4 hours post-inoculation with dH2O, metronidazole (MET), vancomycin (VAN), or a compound of the present invention. Oral dosing regimens for VAN and compounds of Formula I were 0.5 mg/kg once daily for 5 days. MET was administered at 70 mg/kg three times daily for 5 days. CDAD was confirmed as the cause of death by observations at necropsy, including wet tail and/or macroscopic cecal alterations. The % protection provided by each therapy tested was calculated at 1 and 21 days post-dosing.

[2] = test system: Enterococcus faecium EFM.14 (ATCC 6569); type: cell-based
Method in brief: (§1)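 MIC in μg/mL, taken as the lowest compound concentration producing no visible turbidity after 18-20 hours at 37° C with shaking at 200 rpm. Organisms were grown in calcium-supplemented (50 mg/L) Mueller Hinton broth at 5×10^5 bacteria per well.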

[3] = test system: Enterococcus faecium EFM.384, Daptomycin resistant mutant (14-A); type: cell-based; settings: MHBc with 50 mg/L calcium, 18-20 hours at 37° C.
Method in brief: as §1

[4] = test system: Staphylococcus aureus SAU.42 (ATCC 29213); type: cell-based
Method in brief: as §1

[5] = test system: Staphylococcus aureus SAU.278, Daptomycin resistant mutant (D10); type: cell-based; settings: MHBc with 50 mg/L calcium, 18-20 hours at 37° C.
Method in brief: as §1

[6] = test system: Enterococcus faecalis EFS.201 (ATCC 49452); type: cell-based
Method in brief: as §1

[7] = test system: Enterococcus faecalis EFS.312, Daptomycin resistant mutant (EFA); type: cell-based; settings: MHBc with 50 mg/L calcium, 18-20 hours at 37° C.
Method in brief: as §1

[8] = test system: Staphylococcus aureus SAU.399 (ATCC 43300), Methicillin and Oxacillin Resistant; type: cell-based
Method in brief: as §1

[9] = MHBc with 50 mg/L calcium, 18-20 hours at 37° C.

| SMILES | Mean % Protection 1 Day Post Dosing [1] [%] | Mean % Protection 21 Days Post Dosing [1] [%] | C. diff MIC90 (Clostridium difficile) [mg/L] | Efm14 MIC ([2]; ATCC 6569) [mg/L] | Efm384 MIC [3] [mg/L] | Sa42 MIC ([4]; ATCC 29213) [mg/L] | Sa278 MIC [5] [mg/L] | Efs201 MIC ([6]; ATCC 49452) [mg/L] | Efs312 MIC [7] [mg/L] | Sa399 MIC ([8]; ATCC 43300) [mg/L] | Efm14 MIC [2, 9] [mg/L] | Sa42 MIC [4, 9] [mg/L] | Efs201 MIC [6, 9] [mg/L] | Sa399 MIC [8, 9] [mg/L] |
| --- | --- | --- | --- | --- | --- | --- | --- | --- | --- | --- | --- | --- | --- | --- |
| CN[C@H](CC(C)C)C(=O)N[C@H]1C(=O)N[C@@H](CC(N)=O)C(=O)N[C@H]2C(=O)N[C@H]3C(=O)N[C@H](C(=O)N[C@H](C(=O)O)c4cc(O)cc(O)c4-c4cc3ccc4O)[C@H](O)c3ccc(c(Cl)c3)Oc3cc2cc(c3O[C@@H]2O[C@H](CO)[C@@H](O)[C@H](O)[C@H]2O[C@H]2C[C@](C)(N)[C@H](O)[C@H](C)O2)Oc2ccc(cc2Cl)[C@H]1O [Vancomycin, vancomycin, reference compound] | 90 | 62 | – | – | – | – | – | – | – | – | – | – | – | – |
| Cc1ncc([N+](=O)[O-])n1CCO [Metronidazole, 2-methyl-5-nitro-1H-imidazole-1-ethanol, reference compound] | 100 | 0 | – | – | – | – | – | – | – | – | – | – | – | – |
| CC(C)Cc1ccc(C(C)C(=O)N[C@@H](Cc2c[nH]c3ccccc23)C(=O)N[C@H](CC(N)=O)C(=O)N[C@@H](CC(=O)O)C(=O)N[C@@H]2C(=O)NCC(=O)N[C@@H](CCCN)C(=O)N[C@@H](CC(=O)O)C(=O)N[C@H](C)C(=O)N[C@@H](CC(=O)O)C(=O)NCC(=O)N[C@H](CO)C(=O)N[C@@H]([C@H](C)CC(=O)O)C(=O)N[C@@H](CC(=O)c3ccccc3N)C(=O)O[C@@H]2C)cc1 (single isomer, unassigned) [45 isomer II] | – | – | 8 | 32 | >32 | 4 | >32 | 32 | >32 | 4 | – | – | – | – |
| C[C@H](CC(=O)O)[C@@H]1NC(=O)[C@@H](CO)NC(=O)CNC(=O)[C@H](CC(=O)O)NC(=O)[C@@H](C)NC(=O)[C@H](CC(=O)O)NC(=O)[C@H](CCCN)NC(=O)CNC(=O)[C@@H](NC(=O)[C@H](CC(=O)O)NC(=O)[C@@H](CC(N)=O)NC(=O)[C@H](Cc2c[nH]c3ccccc23)NC(=O)c2ccc(-c3ccc(-c4ccccc4)cc3)cc2)[C@@H](C)OC(=O)[C@H](CC(=O)c2ccccc2N)NC1=O [Compound 69] | – | – | 2 | – | 4 | – | 0.125 | – | 32 | – | 0.5 | 0.125 | 0.5 | 0.125 |
| CCCOc1ccc(-c2ccc(C(=O)N[C@@H](Cc3c[nH]c4ccccc34)C(=O)N[C@H](CC(N)=O)C(=O)N[C@@H](CC(=O)O)C(=O)N[C@@H]3C(=O)NCC(=O)N[C@@H](CCCN)C(=O)N[C@@H](CC(=O)O)C(=O)N[C@H](C)C(=O)N[C@@H](CC(=O)O)C(=O)NCC(=O)N[C@H](CO)C(=O)N[C@@H]([C@H](C)CC(=O)O)C(=O)N[C@@H](CC(=O)c4ccccc4N)C(=O)O[C@@H]3C)cc2)cc1 [Compound 59] | – | – | 4 | 4 | 32 | 0.5 | 4 | 4 | >32 | 0.5 | – | – | – | – |
| CC(C)CCCCCCCCCC(=O)N[C@@H](Cc1c[nH]c2ccccc12)C(=O)N[C@H](CC(N)=O)C(=O)N[C@@H](CC(=O)O)C(=O)N[C@@H]1C(=O)NCC(=O)N[C@@H](CCCN)C(=O)N[C@@H](CC(=O)O)C(=O)N[C@H](C)C(=O)N[C@@H](CC(=O)O)C(=O)NCC(=O)N[C@H](CO)C(=O)N[C@@H]([C@H](C)CC(=O)O)C(=O)N[C@@H](CC(=O)c2ccccc2N)C(=O)O[C@@H]1C [Compound 10] | – | – | 1 | 1 | 4 | 0.25 | 1 | 0.13 | >32 | 0.25 | – | – | – | – |
| C[C@H](CC(=O)O)[C@@H]1NC(=O)[C@@H](CO)NC(=O)CNC(=O)[C@H](CC(=O)O)NC(=O)[C@@H](C)NC(=O)[C@H](CC(=O)O)NC(=O)[C@H](CCCN)NC(=O)CNC(=O)[C@@H](NC(=O)[C@H](CC(=O)O)NC(=O)[C@@H](CC(N)=O)NC(=O)[C@H](Cc2c[nH]c3ccccc23)NC(=O)c2cc(-c3ccc(Cl)cc3)cs2)[C@@H](C)OC(=O)[C@H](CC(=O)c2ccccc2N)NC1=O [Compound 70] | – | – | 16 | >32 | >32 | 8 | >32 | >32 | >32 | 8 | – | – | – | – |
| CCCCCCOc1ccc(C(=O)N[C@@H](Cc2c[nH]c3ccccc23)C(=O)N[C@H](CC(N)=O)C(=O)N[C@@H](CC(=O)O)C(=O)N[C@@H]2C(=O)NCC(=O)N[C@@H](CCCN)C(=O)N[C@@H](CC(=O)O)C(=O)N[C@H](C)C(=O)N[C@@H](CC(=O)O)C(=O)NCC(=O)N[C@H](CO)C(=O)N[C@@H]([C@H](C)CC(=O)O)C(=O)N[C@@H](CC(=O)c3ccccc3N)C(=O)O[C@@H]2C)cc1 [Compound 35] | – | – | 2 | – | 32 | – | 4.00 | – | >32 | – | 2 | 0.5 | 1.0 | 0.5 |
| CCCCCCCCC1CC1C(=O)N[C@@H](Cc1c[nH]c2ccccc12)C(=O)N[C@H](CC(N)=O)C(=O)N[C@@H](CC(=O)O)C(=O)N[C@@H]1C(=O)NCC(=O)N[C@@H](CCCN)C(=O)N[C@@H](CC(=O)O)C(=O)N[C@H](C)C(=O)N[C@@H](CC(=O)O)C(=O)NCC(=O)N[C@H](CO)C(=O)N[C@@H]([C@H](C)CC(=O)O)C(=O)N[C@@H](CC(=O)c2ccccc2N)C(=O)O[C@@H]1C (single isomer, unassigned) [27 isomer II] | – | – | 1 | 1 | 4 | 1 | 2 | 0.5 | 32 | 0.5 | – | – | – | – |
| CCCCCC1CCC(NC(=O)N[C@@H](Cc2c[nH]c3ccccc23)C(=O)N[C@H](CC(N)=O)C(=O)N[C@@H](CC(=O)O)C(=O)N[C@@H]2C(=O)NCC(=O)N[C@@H](CCCN)C(=O)N[C@@H](CC(=O)O)C(=O)N[C@H](C)C(=O)N[C@@H](CC(=O)O)C(=O)NCC(=O)N[C@H](CO)C(=O)N[C@@H]([C@H](C)CC(=O)O)C(=O)N[C@@H](CC(=O)c3ccccc3N)C(=O)O[C@@H]2C)CC1 (some centres unmarked) [Compound 17] | – | – | 1 | – | 16 | – | 0.25 | – | >32 | – | 1 | 0.25 | 1 | 0.25 |
